In patent publication US7291611B2, “Benzimidazolidinone derivatives as muscarinic agents” (ACADIA Pharmaceuticals Inc., priority 2001, dated 2007):

How the values were obtained:
[1] = biological target: T1, human dopamine D2 receptor (Homo sapiens, UniProt P14416); experiment: [3H]-Spiperone radioligand binding to D2 receptor membranes; conditions: tSA cell membranes, 150 pM [3H]-Spiperone; read-out: D2 [3H]Spiperone pIC50 (converted)
T1 construct: expressed in transfected cells; host or cells: tSA cells
Procedure: The D2 dopamine receptor subtype was cloned substantially as described by Stormann, Gdula, Weiner and Brann, 1990 [Mol Pharmacol 37, 1-6]. Cell membranes expressing the D2 receptor were prepared by transfecting tSA cells (Chahine, M., Bennet, P. B., George, A. L., Horn, R. (1994) Pfluegers Arch. 427, 136-142) with 10 μg plasmid DNA encoding the human dopamine D2 receptor and 40 μl Superfect (Qiagen). The cells were harvested 48 hours and transfection and membranes were prepared by homogenizing the cells using a Polytron harvester in 20 mM Hepes, 10 mM EDTA, pH 7.4. The homogenate was centrifuged for 30 minutes at 37,000 g. The pellet was homogenized again in 60 ml 20 mM Hepes, 5 mM EDTA. The homogenate was centrifuged for 30 minutes at 37,000 g. The supernatant was discarded. The pellet was homogenized again in 10 ml 20 mM Hepes, 1 mM EDTA. The resultant membranes were frozen at −80° C.
The membranes were combined with 150 pM [^3H]-Spiperone (Amersham-Pharmacia, 107 Ci/mmol) and ligand concentrations between 1 nM and 10 μM, or haloperidol concentrations between 0.1 nM and 1 μM in 460 μl 20 mM Hepes, 1 mM EDTA, 0.1% (w/v) bovine serum albumin. Nonspecific binding was defined as binding in the presence of 1 μM haloperidol. The membranes were incubated for 4 hours at 37° C., and then filtered onto Packard GFB Filterplates using a Packard harvester. The membranes were dried and 50 μl Microscint (Packard) was added to each well. The amount of bound radioligand was quantified using a Packard Topcount scintillation counter.
Data were normalized relative to the maximum inhibition of [^3H]-Spiperone binding by 1 μM haloperidol, and the following equation was fitted to the data: % inhibition=minimum+(maximum−minimum)/(1+([ligand]/[IC50])) % inhibition was defined as (maximum−minimum)/(maximum response of cells to haloperidol). pIC50=−log (IC50). NT=not tested. Results

M1 muscarinic receptor = biological target: T2, M1 muscarinic receptor (Homo sapiens, UniProt P11229); experiment: R-SAT functional assay, muscarinic M1 receptor; format: cell-based; conditions: for Emax: NIH3T3, relative to maximum response to carbachol, read-out: M1 % Efficacy; for Emax / EC50: R-SAT, transfected NIH-3T3 cells; for EC50: read-out: M1 pEC50 (converted)
T2 construct: expressed in transfected cells; host or cells: NIH-3T3 cells (ATCC CRL 1658)
T2 sequence (P11229 1-460): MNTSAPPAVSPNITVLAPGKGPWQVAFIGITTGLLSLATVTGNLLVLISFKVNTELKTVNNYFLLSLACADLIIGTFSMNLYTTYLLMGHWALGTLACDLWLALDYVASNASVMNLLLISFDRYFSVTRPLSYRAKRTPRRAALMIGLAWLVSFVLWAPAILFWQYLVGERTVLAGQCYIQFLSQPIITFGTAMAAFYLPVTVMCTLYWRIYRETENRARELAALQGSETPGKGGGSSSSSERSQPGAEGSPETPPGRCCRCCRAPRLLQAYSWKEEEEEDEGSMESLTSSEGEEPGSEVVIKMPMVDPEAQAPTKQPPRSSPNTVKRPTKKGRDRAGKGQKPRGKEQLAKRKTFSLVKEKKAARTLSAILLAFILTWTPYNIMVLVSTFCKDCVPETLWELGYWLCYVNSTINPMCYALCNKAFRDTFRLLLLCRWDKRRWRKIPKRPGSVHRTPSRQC
Procedure: (§1) The M1 and M4 muscarinic receptor subtypes were cloned substantially as described by Bonner et al., (1987) Science […] p. 527 and Bonner et al, (1988) Neuron 1, p. 403. R-SAT assays were carried out substantially as described in U.S. Pat. No. 5,707,798 and by Braüner-Osbome, H. B. and Brann, M. R. (1995), Eur. J. Pharmacol. 295:93-102. NIH-3T3 cells (available from the American Type Culture Collection as ATCC CRL 1658) were transfected with plasmid DNA encoding the m1 and m4 receptors and plasmid DNA encoding β-galactosidase. Transfected cells were grown in the presence of between 1 nM and 40 μM of the test compound for 5 days. On day 5, the cells were lysed using 0.5% nonidet-P and β-galactosidase expression was quantified using the chromogenic substrate o-nitrophenyl-p-D-galactoside (ONGP).
(§2) Data were normalized relative to the maximum response of the cells to the muscarinic agonist carbachol, and the following equation was fitted to the data: response=minimum+(maximum−minimum)/(1+([ligand]/EC50)) % Efficacy was defined as (maximum−minimum)/(maximum response of cells to carbachol). pEC50=−log (EC50). Where data gave a bell-shaped curve, “maximum” was defined as the highest observed response.

M4 muscarinic receptor = biological target: T3, M4 muscarinic receptor (Homo sapiens, UniProt P08173); experiment: R-SAT functional assay, muscarinic M4 receptor; format: cell-based; conditions: for Emax: NIH3T3, relative to maximum response to carbachol, read-out: M4 % Efficacy; for Emax / EC50: R-SAT, transfected NIH-3T3 cells; for EC50: read-out: M4 pEC50 (converted)
T3 construct: expressed in transfected cells; host or cells: NIH-3T3 cells (ATCC CRL 1658)
T3 sequence (P08173 1-479): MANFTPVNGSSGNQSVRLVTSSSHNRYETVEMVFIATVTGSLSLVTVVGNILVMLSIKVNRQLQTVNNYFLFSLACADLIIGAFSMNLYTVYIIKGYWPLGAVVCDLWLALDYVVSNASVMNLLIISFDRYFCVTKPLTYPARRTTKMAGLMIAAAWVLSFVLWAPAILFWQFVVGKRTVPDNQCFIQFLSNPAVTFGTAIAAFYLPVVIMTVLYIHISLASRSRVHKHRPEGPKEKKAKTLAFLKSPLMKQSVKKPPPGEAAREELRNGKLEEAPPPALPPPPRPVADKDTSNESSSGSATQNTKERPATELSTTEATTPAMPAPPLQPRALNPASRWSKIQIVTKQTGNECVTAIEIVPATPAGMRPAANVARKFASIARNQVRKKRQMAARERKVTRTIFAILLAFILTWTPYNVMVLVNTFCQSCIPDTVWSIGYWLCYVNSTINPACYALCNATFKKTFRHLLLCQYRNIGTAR
Procedure: as §1, §2

T1 sequence (P14416 1-414 isoform P14416-2): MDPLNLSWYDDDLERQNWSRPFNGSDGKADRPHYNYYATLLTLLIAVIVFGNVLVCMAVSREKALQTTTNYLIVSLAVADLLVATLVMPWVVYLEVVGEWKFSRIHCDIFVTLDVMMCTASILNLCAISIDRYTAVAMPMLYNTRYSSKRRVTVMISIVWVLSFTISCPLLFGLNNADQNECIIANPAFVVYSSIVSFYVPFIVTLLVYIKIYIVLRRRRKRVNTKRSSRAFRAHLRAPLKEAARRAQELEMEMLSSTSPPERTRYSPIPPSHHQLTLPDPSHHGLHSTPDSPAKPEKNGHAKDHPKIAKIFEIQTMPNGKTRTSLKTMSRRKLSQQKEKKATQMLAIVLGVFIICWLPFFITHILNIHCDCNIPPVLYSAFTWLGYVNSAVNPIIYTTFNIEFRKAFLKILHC

| SMILES | IC50 [1] [nM] | Emax (M1 muscarinic receptor) [%] | EC50 (M1 muscarinic receptor) [nM] | Emax (M4 muscarinic receptor) [%] | EC50 (M4 muscarinic receptor) [nM] | binding efficacy for the M1 receptor subtype (M1 muscarinic receptor) | binding efficacy for the M4 receptor subtype (M4 muscarinic receptor) |
| --- | --- | --- | --- | --- | --- | --- | --- |
| CCCOC1CCN(CCCn2c(=O)sc3ccccc32)CC1 [Compound 61KS70-1, 3-[3-(4-Propoxy-piperidin-1-yl)-propyl]-3H-benzothiazol-2-one] | 316 | 96 | 79.4 | 112 | 794 | – | – |
| CCCCC1CC2CCC(C1)N2CCCn1c(=O)sc2ccccc21 (centres unmarked) [Compound 97KS96-2, 3-[3-(3-Butyl-8-aza-bicyclo[3.2.1]oct-8-yl)-propyl]-3H-benzothiazol-2-one] | 100 | 63 | 50.1 | 50 | – | – | – |
| CCCOC1CCN(CC(C)Cn2c(=O)sc3ccccc32)CC1 (centres unmarked) [Compound 85LM49B, 3-(3-(4-Propoxy-piperidin-1-yl)-2-methyl-propyl)-3H-benzothiazol-2-one] | – | 98 | 25.1 | – | – | – | – |
| CCCCC1CCN(CC(C)Cn2c(=O)sc3ccccc32)CC1 (centres unmarked) [Compound 85LM14, 3-(3-(4-Butyl-piperidin-1-yl)-2-methyl-propyl)-3H-benzothiazol-2-one] | 79.4 | 104 | 31.6 | 94 | 1580 | – | – |
| CCCCC1CCN(CCCn2c(=O)oc3ccc(C)cc32)CC1 [Compound 86KKM25-d, 3-[3-(4-butylpiperidin-1-yl)propyl]-5-methyl-3H-benzooxazol-2-one] | – | 84 | 100 | 63 | 794 | – | – |
| CCCC=C1CCN(CCCn2c(=O)[nH]c3ccccc32)CC1 [Compound 61KS-12, 1-(3-[4-Butylidenepiperidino]propyl)-1,3-dihydrobenzimidazol-2-one] | 1000 | 107 | 31.6 | 164 | 79.4 | high binding efficacy | high binding efficacy |
| CCCCCC1CC2CCC(C1)N2CCCn1c(=O)sc2ccccc21 (centres unmarked) [Compound 79KS97, 3-[3-(3-Pentyl-8-aza-bicyclo[3.2.1]oct-8-yl)-propyl]-3H-benzothiazol-2-one] | 100 | 70 | 6.31 | – | – | – | – |
| CCCCCC1CCN(CCCn2c(=O)[nH]c3ccccc32)CC1 [Compound 45NK-71, 1-[3-(4-Pentylpiperidin-1-yl)propyl]-1,3-dihydrobenzoimidazol-2-one] | 398 | 71 | 100 | 49 | 251 | high binding efficacy | high binding efficacy |
| CCCCC1CCN(CCCn2c(=O)sc3ccccc32)CC1 [Compound 62KK040d, 3-[3-(4-Butylpiperidin-1-yl)propyl]-3H-benzothiazol-2-one] | 79.4 | 83 | 25.1 | 93 | 398 | – | – |
| CCCCC1CCN(CCCn2c(=O)oc3cc(F)ccc32)CC1 [Compound 97KK28, 3-[3-(4-butylpiperidin-1-yl)propyl]-6-fluoro-3H-benzooxazol-2-one] | 251 | 71 | 200 | – | – | – | – |

Now from value to compound:

| IC50 [1] [nM] | Emax (M1 muscarinic receptor) [%] | EC50 (M1 muscarinic receptor) [nM] | Emax (M4 muscarinic receptor) [%] | EC50 (M4 muscarinic receptor) [nM] | binding efficacy for the M1 receptor subtype (M1 muscarinic receptor) | binding efficacy for the M4 receptor subtype (M4 muscarinic receptor) | SMILES |
| --- | --- | --- | --- | --- | --- | --- | --- |
| 631 | 75 | 200 | 56 | 1260 | – | – | CCCCC1CCN(CCCn2c(=O)oc3ccc(F)cc32)CC1 [Compound 86KK22-K, 3-[3-(4-butylpiperidin-1-yl)propyl]-5-fluoro-3H-benzooxazol-2-one] |
| 398 | 106 | 39.8 | 100 | 39.8 | high binding efficacy | high binding efficacy | CCCCC=C1CCN(CCCn2c(=O)[nH]c3ccccc32)CC1 [Compound 61KS-13, 1-(3-[4-Pentylidenepiperidino]propyl)-1,3-dihydrobenzimidazole-2-one] |
| 3160 | 89 | 100 | 61 | 1260 | high binding efficacy | high binding efficacy | CCCCC1CCN(CCCn2c(=O)n(C)c3ccccc32)CC1 [Compound 45NK-110, 1-[3-(4-Butylpiperidin-1-yl)propyl]-3-methyl-1,3-dihydrobenzoimidazol-2-one] |
| 631 | 73 | 100 | 36 | – | – | – | CCCCC1CCN(CCCn2c(=O)oc3cccc(C)c32)CC1 [Compound 86KK25-a, 3-[3-(4-butylpiperidin-1-yl]propyl)-4-methyl-3H-benzooxazol-2-one] |
| 631 | 70 | 50.1 | 40 | 79.4 | high binding efficacy | high binding efficacy | CC(C)CC=C1CCN(CCCn2c(=O)[nH]c3ccccc32)CC1 [Compound 45NK-70, 1-{3-[4-(3-Methylbutylidene)piperidin-1-yl]propyl}-1,3-dihydrobenzoimidazol-2-one] |
| 398 | 78 | 126 | – | – | – | – | CCCCC1CCN(CCCN2C(=O)Cc3ccccc32)CC1 [Compound 85LM12, 1-(3-(4-Butylpiperidin-1-yl)propyl)-1,3-dihydro-indol-2-one] |
| 50.1 | 99 | 31.6 | 141 | 794 | – | – | CCCCC1CCN(C[C@@H](C)Cn2c(=O)sc3ccccc32)CC1 [Compound 85LM91-78R, 3-(3-(4-Butylpiperidin-1-yl)-(R)-2-methylpropyl)-3H-benzothiazol-2-one] |
